Molecular target: PI3K-alpha (Homo sapiens (Human), UniProt P42336)
Test: HTRF PI3K biochemical assay, alpha isoform
Details: ratio PI3K-alpha IC50 value/PI3K-delta IC50 value

Chain of PI3K-alpha (P42336 whole entry, looked up, canonical isoform): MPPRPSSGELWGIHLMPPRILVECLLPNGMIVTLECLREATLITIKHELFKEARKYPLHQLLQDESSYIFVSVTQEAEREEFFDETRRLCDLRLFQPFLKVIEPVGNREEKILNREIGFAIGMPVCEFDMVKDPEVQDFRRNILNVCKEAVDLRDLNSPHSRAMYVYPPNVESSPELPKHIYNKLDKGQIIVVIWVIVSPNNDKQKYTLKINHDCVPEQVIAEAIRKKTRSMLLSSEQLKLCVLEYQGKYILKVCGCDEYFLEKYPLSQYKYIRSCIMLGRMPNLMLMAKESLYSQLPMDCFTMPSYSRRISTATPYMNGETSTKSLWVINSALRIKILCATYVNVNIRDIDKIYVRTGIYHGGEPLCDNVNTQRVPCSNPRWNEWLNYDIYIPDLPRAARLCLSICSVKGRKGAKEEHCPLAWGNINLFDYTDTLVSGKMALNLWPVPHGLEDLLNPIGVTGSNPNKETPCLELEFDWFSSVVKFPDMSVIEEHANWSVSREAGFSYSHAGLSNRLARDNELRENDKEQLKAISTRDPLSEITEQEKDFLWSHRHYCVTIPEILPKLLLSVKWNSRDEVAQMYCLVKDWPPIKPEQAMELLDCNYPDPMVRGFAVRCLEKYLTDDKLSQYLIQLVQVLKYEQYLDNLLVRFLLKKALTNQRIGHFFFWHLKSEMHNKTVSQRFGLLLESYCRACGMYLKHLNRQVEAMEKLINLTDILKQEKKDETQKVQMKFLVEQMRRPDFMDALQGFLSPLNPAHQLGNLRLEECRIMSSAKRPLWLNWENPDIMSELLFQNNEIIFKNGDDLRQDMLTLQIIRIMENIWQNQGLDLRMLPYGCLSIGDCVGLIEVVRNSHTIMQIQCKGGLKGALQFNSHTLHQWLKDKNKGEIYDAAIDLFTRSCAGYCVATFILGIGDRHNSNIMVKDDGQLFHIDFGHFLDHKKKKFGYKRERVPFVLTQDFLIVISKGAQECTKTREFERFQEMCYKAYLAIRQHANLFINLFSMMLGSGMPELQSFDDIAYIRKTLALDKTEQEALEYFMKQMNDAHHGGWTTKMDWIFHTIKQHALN
Chain of PI3K-alpha (P27986 whole entry partner, looked up, canonical isoform): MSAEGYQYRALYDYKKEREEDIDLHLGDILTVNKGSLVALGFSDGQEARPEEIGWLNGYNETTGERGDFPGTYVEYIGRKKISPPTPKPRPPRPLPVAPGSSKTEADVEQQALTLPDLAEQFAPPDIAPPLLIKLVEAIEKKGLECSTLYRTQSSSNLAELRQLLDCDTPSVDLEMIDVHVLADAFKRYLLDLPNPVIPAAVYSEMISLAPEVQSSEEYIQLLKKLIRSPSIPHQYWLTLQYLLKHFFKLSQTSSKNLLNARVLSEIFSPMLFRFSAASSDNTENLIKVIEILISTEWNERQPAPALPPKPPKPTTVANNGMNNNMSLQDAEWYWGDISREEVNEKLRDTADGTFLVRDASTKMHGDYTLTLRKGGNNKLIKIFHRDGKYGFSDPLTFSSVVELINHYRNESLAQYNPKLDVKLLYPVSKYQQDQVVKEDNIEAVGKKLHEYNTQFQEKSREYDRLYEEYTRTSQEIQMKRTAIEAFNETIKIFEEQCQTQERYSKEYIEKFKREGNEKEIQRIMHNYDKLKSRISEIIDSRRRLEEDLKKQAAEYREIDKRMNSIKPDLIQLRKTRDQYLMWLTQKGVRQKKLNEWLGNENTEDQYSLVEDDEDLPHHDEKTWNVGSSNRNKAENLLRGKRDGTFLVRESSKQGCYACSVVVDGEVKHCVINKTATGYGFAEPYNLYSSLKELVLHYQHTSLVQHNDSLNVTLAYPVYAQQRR

Row | Structure (SMILES) | Relative Selectivity versus PI3Kalpha
1 | CCNC(=O)N1CC[C@H](Oc2ncnc3c2nc(-c2cnn(CC)c2C)n3C)C1 [Compound 5-7, (S)-N-ethyl-3-((8-(1-ethyl-5-methyl-1H-pyrazol-4-yl)-9-methyl-9H-purin-6-yl]oxy}pyrrolidine-1-carboxamide] | >10
2 | CCNC(=O)N1CC[C@H](Oc2ncnc3c2nc(-c2cnc(C)nc2)n3CC)C1 [Compound 5-8, (3S)-N-ethyl-3-{[9-ethyl-8-(2-methylpyrimidin-5-yl)-9H-purin-6-yl]oxy}pyrrolidine-1-carboxamide] | >10
3 | CCN(C)C(=O)N1CC[C@H](Oc2ncnc3c2nc(-c2cnc(C)nc2)n3CC)C1 [Compound 5-9, (3S)-N-ethyl-3-{[9-ethyl-8-(2-methylpyrimidin-5-yl)-9H-purin-6-yl]oxy}-N-methylpyrrolidine-1-carboxamide] | >10
4 | CCn1c(-c2cnc(C)nc2)nc2c(O[C@H]3CCN(C(=O)N(C)C4CC4)C3)ncnc21 [Compound 5-10, (3S)-N-cyclopropyl-3-{[9-ethyl-8-(2-methylpyrimidin-5-yl)-9H-purin-6-yl]oxy}-N-methylpyrrolidine-1-carboxamide] | >10
5 | CCn1c(-c2cnc(C)nc2)nc2c(O[C@H]3CCN(C(=O)N4CCC4)C3)ncnc21 [Compound 5-11, 6-{[(3S)-1-(azetidin-1-ylcarbonyl)pyrrolidin-3-yl]oxy}-9-ethyl-8-(2-methylpyrimidin-5-yl)-9H-purine] | >10
6 | CCn1c(-c2cnc(C)nc2)nc2c(OC3CCN(C(=O)N(C)c4ccccc4)CC3)ncnc21 [Compound 5-12, 4-{[9-ethyl-8-(2-methylpyrimidin-5-yl)-9H-purin-6-yl]oxy}-N-methyl-N-phenylpiperidine-1-carboxamide] | >10
7 | CCn1c(-c2cnc(C)nc2)nc2c(O[C@H]3CCN(C(=O)N4CC(OC)C4)C3)ncnc21 [Compound 5-13, 9-ethyl-6-({(3S)-1-[(3-methoxyazetidin-1-yl)carbonyl]pyrrolidin-3-yl}oxy)-8-(2-methylpyrimidin-5-yl)-9H-purine] | >10
8 | CCn1c(-c2cnc(C)nc2)nc2c(O[C@H]3CCN(C(=O)N4CC(F)(F)C4)C3)ncnc21 [Compound 5-14, 6-{[(3S)-1-[(3,3-difluoroazetidin-1-yl)carbonyl]pyrrolidin-3-yl}oxy)-9-ethyl-8-(2-methylpyrimidin-5-yl)-9H-purine] | >10
9 | CCn1c(-c2cnc(C)nc2)nc2c(O[C@H]3CCN(C(=O)N(C)c4ccccc4)C3)ncnc21 [Compound 5-17, (3S)-3-{[9-ethyl-8-(2-methylpyrimidin-5-yl)-9H-purin-6-yl]oxy}-N-methyl-N-phenylpyrrolidine-1-carboxamide] | >10
10 | CCn1c(-c2cnc(C)nc2)nc2c(O[C@H]3CCN(C(=O)N4CCC(CO)C4)C3)ncnc21 (stereo partly drawn) [Compound 5-18, (1-{[(3S)-3-{[9-ethyl-8-(2-methylpyrimidin-5-yl)-9H-purin-6-yl]oxy}pyrrolidin-1-yl]carbonyl}pyrrolidin-3-yl)methanol] | >10
11 | CCn1c(-c2cnc(C)nc2)nc2c(O[C@H]3CCN(C(=O)N4CCC(C)(C)C4)C3)ncnc21 [Compound 5-19, 6-({(3S)-1-[(3,3-dimethylpyrrolidin-1-yl)carbonyl]pyrrolidin-3-yl}oxy)-9-ethyl-8-(2-methylpyrimidin-5-yl)-9H-purine] | >10
12 | CCn1c(-c2cnc(C)nc2)nc2c(O[C@H]3CCN(C(=O)N4CCC(C)(O)C4)C3)ncnc21 (stereo partly drawn) [Compound 5-20, 1-{[(3S)-3-{[9-ethyl-8-(2-methylpyrimidin-5-yl)-9H-purin-6-yl]oxy}pyrrolidin-1-yl]carbonyl}-3-methylpyrrolidin-3-ol] | >10
13 | CCn1c(-c2cnc(C)nc2)nc2c(O[C@H]3CCN(C(=O)N4CC(C)(OC)C4)C3)ncnc21 [Compound 5-21, 9-ethyl-6-({(3S)-1-[(3-methoxy-3-methylazetidin-1-yl)carbonyl]pyrrolidin-3-yl}oxy)-8-(2-methylpyrimidin-5-yl)-9H-purine] | >10
14 | CCn1c(-c2cnc(C)nc2)nc2c(O[C@H]3CCN(C(=O)N4CC5CC5C4)C3)ncnc21 (stereo partly drawn) [Compound 5-22, 6-{[(3S)-1-(3-azabicyclo[3.1.0]hex-3-ylcarbonyl)pyrrolidin-3-yl]oxy}-9-ethyl-8-(2-methylpyrimidin-5-yl)-9H-purine] | >10
15 | CCn1c(-c2cnc(C)nc2)nc2c(O[C@H]3CCN(C(=O)N4CCCCC4)C3)ncnc21 [Compound 5-23, 9-ethyl-8-(2-methylpyrimidin-5-yl)-6-{[(3S)-1-(piperidin-1-ylcarbonyl)pyrrolidin-3-yl]oxy}-9H-purine] | >10
16 | CCn1c(-c2cnc(C)nc2)nc2c(O[C@H]3CCN(C(=O)N4C5CCC4CC5)C3)ncnc21 [Compound 5-24] | >10

Row | Structure (SMILES) | Relative Selectivity versus PI3Kalpha
17 | CCn1c(-c2cnc(C)nc2)nc2c(O[C@H]3CCN(C(=O)N4CC(O)C4)C3)ncnc21 [Compound 5-25, 1-{[(3S)-3-{[9-ethyl-8-(2-methylpyrimidin-5-yl)-9H-purin-6-yl]oxy}pyrrolidin-1-yl]carbonyl}azetidin-3-ol] | >10
18 | CCn1c(-c2cnc(C)nc2)nc2c(O[C@H]3CCN(C(=O)N4CCC(F)(F)C4)C3)ncnc21 [Compound 5-26, 6-({(3S)-1-[(3,3-difluoropyrrolidin-1-yl)carbonyl]pyrrolidin-3-yl}oxy)-9-ethyl-8-(2-methylpyrimidin-5-yl)-9H-purine] | >10
19 | CCn1c(-c2cnc(C)nc2)nc2c(O[C@H]3CCN(C(=O)N4CC(F)C4)C3)ncnc21 [Compound 5-27, 9-ethyl-6-({(3S)-1-[(3-fluoroazetidin-1-yl)carbonyl]pyrrolidin-3-yl}oxy)-8-(2-methylpyrimidin-5-yl)-9H-purine] | >10
20 | CCn1c(-c2ccc(C(F)(F)F)nc2)nc2c(O[C@H]3CCN(C(=O)N4CC(OC)C4)C3)ncnc21 [Compound 5-28, (S)-(3-((9-ethyl-8-(6-(trifluoromethyl)pyridin-3-yl)-9H-purin-6-yl)oxy)pyrrolidin-1-yl)(3-methoxyazetidin-1-yl)methanone] | >10
21 | CCn1ncc(-c2nc3c(O[C@H]4CCN(C(C)c5ccccc5)C4)ncnc3n2C)c1C (stereo partly drawn) [Compound 6-1, 8-(1-ethyl-5-methyl-1H-pyrazol-4-yl)-9-methyl-6-{[(3S)-1-(1-phenylethyl)pyrrolidin-3-yl]oxy}-9H-purine] | >10
22 | CCn1ncc(-c2nc3c(O[C@H]4CCN(CC5CCCCC5)C4)ncnc3n2C)c1C [Compound 6-2, 6-{[(3S)-1-(cyclohexylmethyl)pyrrolidin-3-yl]oxy}-8-(1-ethyl-5-methyl-1H-pyrazol-4-yl)-9-methyl-9H-purine] | >10
23 | CCCN1CC[C@H](Oc2ncnc3c2nc(-c2cnn(CC)c2C)n3C)C1 [Compound 6-5, (S)-8-(1-ethyl-5-methyl-1H-pyrazol-4-yl)-9-methyl-6-((1-propylpyrrolidin-3-yl)oxy)-9H-purine] | >10
24 | CCn1c(-c2cnc(C)nc2)nc2c(OC3CN(Cc4ccccc4)CC3(C)C)ncnc21 (centres unmarked) [Compound 6-6, 6-((1-benzyl-4,4-dimethylpyrrolidin-3-yl)oxy)-9-ethyl-8-(2-methylpyrimidin-5-yl)-9H-purine] | >10
25 | CCn1ncc(-c2nc3c(O[C@H]4CCN(c5ncccn5)C4)ncnc3n2C)c1C [Compound 7-1, 8-(1-ethyl-5-methyl-1H-pyrazol-4-yl)-9-methyl-6-{[(3S)-1-pyrimidin-2-ylpyrrolidin-3-yl]oxy}-9H-purine] | >10
26 | CCn1ncc(-c2nc3c(O[C@H]4CCN(c5ncnc6sc(C)cc56)C4)ncnc3n2C)c1C [Compound 7-2, 8-(1-ethyl-5-methyl-1H-pyrazol-4-yl)-9-methyl-6-{[(3S)-1-(6-methylthieno[2,3-d]pyrimidin-4-yl)pyrrolidin-3-yl]oxy}-9H-purine] | >10
27 | CCn1ncc(-c2nc3c(O[C@H]4CCN(c5nccc6sccc56)C4)ncnc3n2C)c1C [Compound 7-3, 8-(1-ethyl-5-methyl-1H-pyrazol-4-yl)-9-methyl-6-{[(3S)-1-thieno[3,2-c]pyridin-4-ylpyrrolidin-3-yl]oxy}-9H-purine] | >10
28 | CCn1ncc(-c2nc3c(O[C@H]4CCN(c5ncnc6ccsc56)C4)ncnc3n2C)c1C [Compound 7-4, 8-(1-ethyl-5-methyl-1H-pyrazol-4-yl)-9-methyl-6-{[(3S)-1-thieno[3,2-d]pyrimidin-4-ylpyrrolidin-3-yl]oxy}-9H-purine] | >10
29 | CCn1ncc(-c2nc3c(O[C@H]4CCN(c5cc(C(F)(F)F)ccn5)C4)ncnc3n2C)c1C [Compound 7-5, 8-(1-ethyl-5-methyl-1H-pyrazol-4-yl)-9-methyl-6-({(3S)-1-[4-(trifluoromethyl)pyridin-2-yl]pyrrolidin-3-yl}oxy)-9H-purine] | >10
30 | CCn1ncc(-c2nc3c(O[C@H]4CCN(c5nccn6cnnc56)C4)ncnc3n2C)c1C [Compound 7-6, 8-[(3S)-3-{[8-(1-ethyl-5-methyl-1H-pyrazol-4-yl)-9-methyl-9H-purin-6-yl]oxy}pyrrolidin-1-yl][1,2,4]triazolo[4,3-a]pyrazine] | >10
31 | CCn1ncc(-c2nc3c(O[C@H]4CCN(c5ccccn5)C4)ncnc3n2C)c1C [Compound 7-7, 8-(1-ethyl-5-methyl-1H-pyrazol-4-yl)-9-methyl-6-{[(3S)-1-pyridin-2-ylpyrrolidin-3-yl]oxy}-9H-purine] | >10
32 | CCn1ncc(-c2nc3c(O[C@H]4CCN(c5nncc6ccccc56)C4)ncnc3n2C)c1C [Compound 7-8, 1-[(3S)-3-{[8-(1-ethyl-5-methyl-1H-pyrazol-4-yl)-9-methyl-9H-purin-6-yl]oxy}pyrrolidin-1-yl]phthalazine] | >10

Source: patent publication US9730940B2, “Purine inhibitors of human phosphatidylinositol 3-kinase delta” (priority 2012, dated 2017)
